Test results taken from patent publication US8420676B2, “Oxazolidinone derivatives” (Dong-A Pharmaceuticals Co. Ltd., priority 2003, dated 2013).
Values after ≈ are worked out from the molar mass of the structure shown.

Columns and labels:
[1] = test system: vancomycin resistant Enterococci (VRE); assay: Assay for in vitro antibacterial activity, agar dilution (VRE); conditions: Enterococcus, read-out: Minimum Inhibitory Concentration (MIC50) VRE
[2] = test system: methicillin resistant Staphylococcus aureus (MRSA); assay: Assay for in vitro antibacterial activity, agar dilution (MRSA); conditions: read-out: Minimum Inhibitory Concentration (MIC50) MRSA

Row | Structure (SMILES) | MIC50 [1] [µg/mL] | MIC50 [2] [µg/mL]
1 | CN(C)CC1CN(c2ccc(-c3ccc(-c4nnn(C)n4)nc3)c(F)c2)C(=O)O1 (stereo in doubt) [Compound 40, (R)-3-(4-(2-(2-methyltetrazol-5-yl)pyridin-5-yl)-3-fluorophenyl)-5-(N,N-dimethylaminomethyl)oxazolidin-2-one] | 8 (≈ 20.1 µM) | 4 (≈ 10.1 µM)
2 | CC(=O)NC[C@H]1CN(c2ccc(-c3ccc(N4CC(COC(=O)CN)CC4=O)nc3)c(F)c2)C(=O)O1 (stereo partly drawn) [Compound 1, (S)-3-(4-(2-(2-oxo-4-glycyloxymethylpylolidin-1-yl)pyridin-5-yl)-3-fluorophenyl)-2-oxo-5-oxazolidinylmethyl acetamide trifluoroacetic acid] | 0.25 (≈ 0.501 µM) | 1 (≈ 2 µM)
3 | CC(=O)NC[C@H]1CN(c2ccc(-c3ccc(-n4cc(COC(=O)CN)nn4)nc3)c(F)c2)C(=O)O1 [Compound 2, (S)-3-(4-(2-(4-glycyloxymethyl-1,2,3-triazol-1-yl)pyridin-5-yl)-3-fluorophenyl)-2-oxo-5-oxazolidinylmethyl acetamide trifluoroacetic acid] | 0.125 (≈ 0.259 µM) | 0.5 (≈ 1.03 µM)
4 | CC(=O)NC[C@H]1CN(c2ccc(-c3ccc(-c4cc(COC(=O)CN)on4)nc3)c(F)c2)C(=O)O1 [Compound 3, (S)-3-(4-(2-(5-glycyloxymethylisoxazol-3-yl)pyridin-5-yl)-3-fluorophenyl)-2-oxo-5-oxazolidinylmethyl acetamide trifluoroacetic acid] | 0.25 (≈ 0.517 µM) | 0.25 (≈ 0.517 µM)
5 | Cn1nnc(-c2ccc(-c3ccc(N4C[C@H](Cn5cncn5)OC4=O)cc3F)cn2)n1 [Compound 4, (R)-3-(4-(2-(2-methyltetrazol-5-yl)pyridin-5-yl)-3-fluorophenyl)-5-([1,2,4]triazol-1-yl)methyl oxazolidin-2-one] | 2 (≈ 4.75 µM) | 2 (≈ 4.75 µM)
6 | CC(=O)NC[C@H]1CN(c2ccc(-c3ccc(N4CCC(OC(=O)CN)C4=O)nc3)c(F)c2)C(=O)O1 (stereo partly drawn) [Compound 5, (S)-3-(4-(2-(2-oxo-3-glycyloxypyrrolidine-1-yl)pyridin-5-yl)-3-fluorophenyl)-2-oxo-5-oxazolidinylmethyl acetamide trifluoroacetic acid] | 0.25 (≈ 0.515 µM) | 0.5 (≈ 1.03 µM)
7 | CC(=O)NC[C@H]1CN(c2ccc(-c3ccc(C4=NOC(COC(=O)CN)C4)nc3)c(F)c2)C(=O)O1 (stereo partly drawn) [Compound 7, (S)-3-(4-(2-(5-glycyloxymethyl-4,5-dihydroisoxazole-3-yl)pyridin-5-yl)-3-fluorophenyl)-2-oxo-5-oxazolidinylmethyl acetamide trifluoroacetic acid] | 0.5 (≈ 1.03 µM) | 0.5 (≈ 1.03 µM)
8 | Cn1nnc(-c2ccc(-c3ccc(N4C[C@H](Cn5nccn5)OC4=O)cc3F)cn2)n1 [Compound 8, (R)-3-(4-(2-(2-methyltetrazol-5-yl)pyridin-5-yl)-3-fluorophenyl)-5-([1,2,3]triazol-2-yl)methyl oxazolidin-2-one] | 16 (≈ 38 µM) | 16 (≈ 38 µM)
9 | Cn1nnc(-c2ccc(-c3ccc(N4C[C@H](Cn5ccnn5)OC4=O)cc3F)cn2)n1 [Compound 9, (R)-3-(4-(2-(2-methyltetrazol-5-yl)pyridin-5-yl)-3-fluorophenyl)-5-([1,2,3]triazol-1-yl)methyl oxazolidin-2-one] | 0.125 (≈ 0.297 µM) | 0.25 (≈ 0.593 µM)
10 | CC(=O)NC[C@H]1CN(c2ccc(-c3ccc(-c4nc(C)c(C)o4)cc3)c(F)c2)C(=O)O1 [Compound 11, (S)-3-(4-(4-(4,5-dimethyloxazol-2-yl)phenyl)-3-fluorophenyl)-2-oxo-5-oxazolidinylmethyl acetamide] | 0.25 (≈ 0.59 µM) | 0.5 (≈ 1.18 µM)
11 | Cc1nnc(-c2ccc(-c3ccc(N4C[C@H](Cn5ccnn5)OC4=O)cc3F)cn2)o1 [Compound 13, (R)-3-(4-(2-(2-methyl-[1,3,4]oxadiazol-5-yl)pyridin-5-yl)-3-fluorophenyl)-5-([1,2,3]triazol-1-yl)methyl oxazolidin-2-one] | 0.25 (≈ 0.593 µM) | 0.25 (≈ 0.593 µM)
12 | O=C1O[C@@H](Cn2ccnn2)CN1c1ccc(-c2ccc(-n3cncn3)nc2)c(F)c1 [Compound 14, (R)-3-(4-(2-([1,2,4]triazol-1-yl)pyridin-5-yl)-3-fluorophenyl)-5-([1,2,3]triazol-1-yl)methyl oxazolidin-2-one] | 0.25 (≈ 0.615 µM) | 0.25 (≈ 0.615 µM)
13 | CC(=O)NC[C@H]1CN(c2ccc(-c3ccc(-c4nc(C)c(C)o4)nc3)c(F)c2)C(=O)O1 [Compound 15] | 1 (≈ 2.36 µM) | 1 (≈ 2.36 µM)
14 | Cn1nnc(-c2ccc(-c3ccc(N4C[C@H](CF)OC4=O)cc3F)cn2)n1 [Compound 18, (R)-3-(4-(2-(2-methyltetrazol-5-yl)pyridin-5-yl)-3-fluorophenyl)-5-fluoromethyl oxazolidin-2-one] | 2 (≈ 5.37 µM) | 1 (≈ 2.69 µM)
15 | Cl.NC[C@H]1CN(c2ccc(-c3ccc(-n4ccnc4)nc3)c(F)c2)C(=O)O1 [Compound 19, (S)-3-(4-(2-(imidazole-1-yl)pyridin-5-yl)-3-fluorophenyl)-5-aminomethyl oxazolidin-2-one hydrochloride] | 32 | 32
16 | Cc1nc(-c2ccc(-c3ccc(N4C[C@H](CO)OC4=O)cc3F)cc2)oc1C [Compound 21, (R)-3-(4-(4-(4,5-dimethyloxazol-2-yl)phenyl)-3-fluorophenyl)-5-hydroxymethyl oxazolidin-2-one] | 1 (≈ 2.62 µM) | 1 (≈ 2.62 µM)
17 | Cc1nc(-c2ccc(-c3ccc(N4C[C@H](COC(=O)CN)OC4=O)cc3F)cc2)oc1C [Compound 23, (R)-3-(4-(4-(4,5-dimethyloxazol-2-yl)phenyl)-3-fluorophenyl)-5-glycyloxymethyl oxazolidin-2-one trifluoroacetic acid] | 2 (≈ 4.55 µM) | 2 (≈ 4.55 µM)
18 | CC(=O)NC[C@H]1CN(c2ccc(-c3ccc(-n4nccn4)nc3)c(F)c2)C(=O)O1 [Compound 25, (S)-3-(4-(2-([1,2,3]triazol-2-yl)pyridin-5-yl)-3-fluorophenyl)-2-oxo-5-oxazolidinylmethyl acetamide] | 0.125 (≈ 0.315 µM) | 0.25 (≈ 0.631 µM)
19 | CC(=O)NC[C@H]1CN(c2ccc(-c3ccc(C4=NC(CO)CO4)cc3)c(F)c2)C(=O)O1 (stereo partly drawn) [Compound 26, (S)-3-(4-(4-(4(S)-hydroxymethyl-4,5-dihydroxazole-2-yl)phenyl)-3-fluorophenyl)-2-oxo-5-oxazolidinylmethyl acetamide] | 0.5 (≈ 1.17 µM) | 0.5 (≈ 1.17 µM)
20 | CC(=O)NC[C@H]1CN(c2ccc(-c3ccc(-c4nc(CO)cs4)cc3)c(F)c2)C(=O)O1 [Compound 28, (S)-3-(4-(4-(4-hydroxymethylthiazol-2-yl)phenyl)-3-fluorophenyl)-2-oxo-5-oxazolidinylmethyl acetamide] | 0.5 (≈ 1.13 µM) | 0.5 (≈ 1.13 µM)
21 | O=C1O[C@@H](CO)CN1c1ccc(-c2ccc(-n3nccn3)nc2)c(F)c1 [Compound 29, (R)-3-(4-(2-([1,2,3]triazol-2-yl)pyridin-5-yl)-3-fluorophenyl)-5-hydroxymethyl oxazolidin-2-one] | 1 (≈ 2.81 µM) | 0.5 (≈ 1.41 µM)
22 | CC(=O)NC[C@H]1CN(c2ccc(-c3ccc(-c4nc(COC(=O)CN)cs4)cc3)c(F)c2)C(=O)O1 [Compound 30, (S)-3-(4-(4-(4-glycyloxymethylthiazol-2-yl)phenyl)-3-fluorophenyl)-2-oxo-5-oxazolidinylmethyl acetamide trifluoroacetic acid] | 0.5 (≈ 1 µM) | 0.5 (≈ 1 µM)
